According to patent publication US20060029668A1, “Sustained release L-arginine formulations and methods of manufacture and use” (priority 2002, published 2006):

What was measured:
infarct volume = assay: Dose optimization of combination of simvastatin and L-arginine, infarct volume in mice; type: in vivo; details: mice injected with varying levels of simvastatin and L-arginine; predicted by statistical analysis
[1] = tested on: endothelium-dependent vasodilation; assay: Endothelium-dependent vasodilation by brachial artery ultrasound in subjects with elevated ADMA; type: in vivo, human; details: subjects in whom eNOS is blocked by elevated ADMA levels
eNOS = eNOS function in cultured human aortic endothelial cells (conversion of labeled L-arginine to L-citrulline); type: cell-based; details: HAEC incubated with 1.0 or 0.3 μM simvastatin for 24 hours; relative to untreated cells
Protocol: Human aortic endothelial cells (HAEC-c) (BioWhittaker, Walkersville, Md.) were cultured according to the following procedure. Endothelial cells in EBM-2/EGM-2 media (BioWhittaker) were grown to about 80% to about 90% confluence. Each flask of cells was washed with 5 ml media followed by the addition of 15 ml media to each cell. Cells were detached with a cell scraper and transferred to a 50 ml conical tube. Cells were pelleted by centrifugation at 800 RMP for 8 min. The supernatant was discarded and the pellet was washed with cold 1× PBS.
The cells were homogenized as follows. The pellet was loosened and 400 μl of 10× homogenization buffer (250 mM Tris at pH 7.4, 10 mM EDTA and 10 mM EGTA) was added. The sample was homogenized using a 27 G needle about 10 times. The homogenate was transferred to a 1.5 ml epindorph tube. The pellet was subsequently resuspended in 30 to 45 μl of 1× homogenization buffer. […]
Following incubation, about 400 μl of stop equilibration buffer (50 mM NaAcetate at pH 5.5) was added to each sample and control. […] Results are calculated, in part, by subtracting background (buffer control) from each sample. The sample values are expressed as counts per minute or as a percent of untreated cells.
Relative eNOS function was measured by the conversion of labeled-L-arginine to L-citrulline and expressed as a percent of citrulline produced by the non-treated cells. […]

N=C(N)NCCC[C@H](N)C(=O)O [L-arginine]
optimal range of the combination (infarct volume): 20 to 25 mg/kg

CCC(C)(C)C(=O)O[C@H]1C[C@@H](C)C=C2C=C[C@H](C)[C@H](CC[C@@H]3C[C@@H](O)CC(=O)O3)[C@H]21 [simvastatin w/o L-arginine SR, simvastatin]
effect on endothelial function [1]: does not enhance | level of eNOS function (eNOS): increases
